In US10696672B2 (Pliant Therapeutics, Inc., priority 2016, dated 2020):

Biological target: recombinant human integrin αvβ6 (Homo sapiens (Human), UniProt P06756+P18564)
Assay: Solid phase integrin αvβ6 binding assay
Details: plate-coated integrin; recombinant TGFβ1 LAP 0.67 ug/ml as ligand; 2 hours at 25° C.; read-out: αvβ6 Inhibition IC50 (nM) - range
Method: Example B1—Solid Phase Integrin αvβ6 Binding Assay
Microplates were coated with recombinant human integrin αvβ6 (2 ug/ml) in PBS (100 ul/well 25° C., overnight). The coating solution was removed, washed with wash buffer (0.05% Tween 20; 0.5 mM MnCl2; in 1×TBS). Plate was blocked with 200 ul/well of Block Buffer (1% BSA; 5% sucrose; 0.5 mM MnCl2; in 1×TBS) at 37° C. for 2 h. Dilutions of testing compounds and recombinant TGFβ1 LAP (0.67 ug/ml) in binding buffer (0.05% BSA; 2.5% sucrose; 0.5 mM MnCl2; in 1×TBS) were added. The plate was incubated for 2 hours at 25° C., washed, and incubated for 1 hour with Biotin-Anti-hLAP. Bound antibody was detected by peroxidase-conjugated streptavidin. The IC50 values for testing compounds were calculated by a four-parameter logistic regression.
The compounds tested were compound samples prepared according to procedures described in the Synthetic Examples section, with the stereochemical purity as indicated in the Examples indicated.

Chain of recombinant human integrin αvβ6 (P06756 31-992): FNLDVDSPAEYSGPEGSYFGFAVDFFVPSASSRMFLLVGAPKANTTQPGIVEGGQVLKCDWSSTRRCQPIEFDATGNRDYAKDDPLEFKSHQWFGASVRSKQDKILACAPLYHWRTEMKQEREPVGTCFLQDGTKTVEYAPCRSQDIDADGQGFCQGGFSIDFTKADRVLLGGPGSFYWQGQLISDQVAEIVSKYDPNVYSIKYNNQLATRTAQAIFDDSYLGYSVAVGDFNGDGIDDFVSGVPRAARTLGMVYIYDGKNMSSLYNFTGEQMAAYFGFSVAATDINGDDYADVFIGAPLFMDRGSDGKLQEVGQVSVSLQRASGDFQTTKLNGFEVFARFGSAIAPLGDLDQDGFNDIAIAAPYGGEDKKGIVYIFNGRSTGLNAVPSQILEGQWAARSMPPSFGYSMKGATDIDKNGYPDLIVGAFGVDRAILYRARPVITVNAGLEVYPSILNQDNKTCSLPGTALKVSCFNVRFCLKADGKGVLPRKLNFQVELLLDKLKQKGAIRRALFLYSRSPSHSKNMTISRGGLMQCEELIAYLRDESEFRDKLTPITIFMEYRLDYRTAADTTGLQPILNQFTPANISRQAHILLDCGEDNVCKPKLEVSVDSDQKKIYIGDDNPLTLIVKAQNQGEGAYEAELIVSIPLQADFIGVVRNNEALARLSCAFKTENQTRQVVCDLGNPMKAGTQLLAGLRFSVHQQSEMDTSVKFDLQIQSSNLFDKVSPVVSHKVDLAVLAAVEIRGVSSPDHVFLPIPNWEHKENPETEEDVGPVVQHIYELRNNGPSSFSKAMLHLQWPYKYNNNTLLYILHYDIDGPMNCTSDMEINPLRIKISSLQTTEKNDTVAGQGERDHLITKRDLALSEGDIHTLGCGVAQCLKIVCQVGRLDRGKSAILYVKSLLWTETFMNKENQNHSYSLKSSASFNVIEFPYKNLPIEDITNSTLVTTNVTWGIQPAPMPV
Chain of recombinant human integrin αvβ6 (P18564 22-707): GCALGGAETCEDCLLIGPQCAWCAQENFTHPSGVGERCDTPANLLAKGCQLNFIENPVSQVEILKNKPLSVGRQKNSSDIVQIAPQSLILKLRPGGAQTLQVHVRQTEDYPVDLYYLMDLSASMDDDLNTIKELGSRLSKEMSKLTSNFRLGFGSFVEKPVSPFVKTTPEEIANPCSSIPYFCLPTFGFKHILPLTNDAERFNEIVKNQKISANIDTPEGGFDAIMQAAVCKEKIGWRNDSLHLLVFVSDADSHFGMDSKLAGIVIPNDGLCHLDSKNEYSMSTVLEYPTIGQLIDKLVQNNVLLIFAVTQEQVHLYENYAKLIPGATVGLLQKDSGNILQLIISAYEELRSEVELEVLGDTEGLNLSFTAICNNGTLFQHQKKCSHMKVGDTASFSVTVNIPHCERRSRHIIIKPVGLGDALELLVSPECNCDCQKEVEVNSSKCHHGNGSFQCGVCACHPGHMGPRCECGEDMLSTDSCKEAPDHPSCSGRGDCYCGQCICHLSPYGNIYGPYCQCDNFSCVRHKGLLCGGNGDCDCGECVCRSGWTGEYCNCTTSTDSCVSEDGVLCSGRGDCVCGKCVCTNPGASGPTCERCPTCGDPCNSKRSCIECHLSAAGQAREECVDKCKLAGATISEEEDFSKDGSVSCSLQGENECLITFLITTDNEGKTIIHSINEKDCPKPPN

Structure (SMILES)	IC50
O=C(N[C@@H](CCN1CC[C@@H](CCc2ccc3c(n2)NCCC3)C1)C(=O)O)c1cccc(N2CCOCC2)c1 [Compound 15a, (S)-2-(3-morpholinobenzamido)-4-((R)-3-(2-(5,6,7,8-tetrahydro-1,8-naphthyridin-2-yl)ethyl)pyrrolidin-1-yl)butanoic acid]	< 50 nM
O=C(O)[C@H](CCN1CC[C@@H](CCc2ccc3c(n2)NCCC3)C1)NC(=O)[C@@H]1COCCN1Cc1ccccc1 [Compound 89]	< 50 nM
CC(C)(C)OC(=O)N[C@@H](CCN1CC[C@@H](CCc2ccc3c(n2)NCCC3)C1)C(=O)O [Compound 2a, (S)-2-((tert-butoxycarbonyl)amino)-4-((R)-3-(2-(5,6,7,8-tetrahydro-1,8-naphthyridin-2-yl)ethyl)pyrrolidin-1-yl)butanoic acid]	< 50 nM
Cc1cc(C)n(-c2cccc(C(=O)N[C@@H](CCN3CC[C@@H](OCc4ccc5c(n4)NCCC5)C3)C(=O)O)c2)n1 [Compound 113]	> 1000 nM
O=C(N[C@@H](CCN1CC[C@@H](CCc2ccc3c(n2)NCCC3)C1)C(=O)O)c1ccc2c(cnn2C(F)F)c1 [Compound 30a, (S)-2-(1-(difluoromethyl)-1H-indazole-5-carboxamido)-4-((R)-3-(2-(5,6,7,8-tetrahydro-1,8-naphthyridin-2-yl)ethyl)pyrrolidin-1-yl)butanoic acid]	< 50 nM
O=C(N[C@@H](CCN1CC[C@@H](CCc2ccc3c(n2)NCCC3)C1)C(=O)O)c1ccc2cnn(C(F)F)c2c1 [Compound 29a, (S)-2-(1-(difluoromethyl)-1H-indazole-6-carboxamido)-4-((R)-3-(2-(5,6,7,8-tetrahydro-1,8-naphthyridin-2-yl)ethyl)pyrrolidin-1-yl)butanoic acid]	< 50 nM
Cn1cc(-c2nn(C)c3c(C(=O)N[C@@H](CCN4CC[C@@H](CCc5ccc6c(n5)NCCC6)C4)C(=O)O)cccc23)cn1 [Compound 102]	250 to 1000 nM
O=C(N[C@@H](CCN1CC[C@@H](CCc2ccc3c(n2)NCCC3)C1)C(=O)O)c1ccccc1C(F)(F)F [Compound 8a, (S)-4-((R)-3-(2-(5,6,7,8-tetrahydro-1,8-naphthyridin-2-yl)ethyl)pyrrolidin-1-yl)-2-(2-(trifluoromethyl)benzamido)butanoic acid]	< 50 nM
O=C(N[C@@H](CCN1CC[C@@H](OCCc2ccc3c(n2)NCCC3)C1)C(=O)O)C1CCOCC1 [Compound 117]	250 to 1000 nM
O=C(N[C@@H](CCN1CC[C@@H](CCc2ccc3c(n2)NCCC3)C1)C(=O)O)c1ccc(N2CCOCC2)cc1 [Compound 16a, (S)-2-(4-morpholinobenzamido)-4-((R)-3-(2-(5,6,7,8-tetrahydro-1,8-naphthyridin-2-yl)ethyl)pyrrolidin-1-yl)butanoic acid]	> 1000 nM
O=C(O)[C@H](CCN1CC[C@@H](CCc2ccc3c(n2)NCCC3)C1)NC(=O)[C@@H]1CCCN1Cc1ncccn1 [Compound 90]	< 50 nM
CC(C)(Cc1ccccc1)C(=O)N[C@@H](CCN1CC[C@@H](CCc2ccc3c(n2)NCCC3)C1)C(=O)O [Compound 45]	< 50 nM
O=C(N[C@@H](CCN1CC(CCc2ccc3c(n2)NCCC3)C1)C(=O)O)[C@H]1CCN(c2ccccn2)C1 [Compound 138]	250 to 1000 nM
Cc1cc(C)n(-c2cccc(C(=O)N[C@@H](CCN3CC(CCc4ccc5c(n4)NCCC5)CC(F)(F)C3)C(=O)O)c2)n1 (stereo partly drawn) [Compound 42]	250 to 1000 nM
CC(C)(C(=O)N[C@@H](CCN1CC[C@@H](OCCc2ccc3c(n2)NCCC3)C1)C(=O)O)c1ccccc1 [Compound 118]	250 to 1000 nM
Cc1cc(C)n(-c2cccc(C(=O)N[C@@H](CCN3CCC(CCc4ccc5c(n4)NCCC5)CC3)C(=O)O)c2)n1 [Compound 12a, (S)-2-(3-(3,5-dimethyl-1H-pyrazol-1-yl)benzamido)-4-(4-(2-(5,6,7,8-tetrahydro-1,8-naphthyridin-2-yl)ethyl)piperidin-1-yl)butanoic acid]	> 1000 nM
O=C(O)[C@H](CCN1CC[C@@H](CCc2ccc3c(n2)NCCC3)C1)NC(=O)[C@@H]1CCCN1Cc1cccnc1 [Compound 99]	< 50 nM
CCCCC(=O)N1CCC[C@@H](C(=O)N[C@@H](CCN2CC[C@@H](CCc3ccc4c(n3)NCCC4)C2)C(=O)O)C1 [Compound 78]	< 50 nM
O=C(N[C@@H](CCN1CC[C@@H](CCc2ccc3c(n2)NCCC3)C1)C(=O)O)c1ccccc1N1CCOCC1 [Compound 14a, (S)-2-(2-morpholinobenzamido)-4-((R)-3-(2-(5,6,7,8-tetrahydro-1,8-naphthyridin-2-yl)ethyl)pyrrolidin-1-yl)butanoic acid]	50 to 250 nM
CC(C)Cn1ncc2c(C(=O)N[C@@H](CCN3CC[C@@H](CCc4ccc5c(n4)NCCC5)C3)C(=O)O)cccc21 [Compound 61]	< 50 nM
O=C(N[C@@H](CCN1CC(CCc2ccc3c(n2)NCCC3)CC(F)(F)C1)C(=O)O)c1ccccc1 (stereo partly drawn) [Compound 41]	50 to 250 nM
O=C(O)[C@H](CCN1CC(CCc2ccc3c(n2)NCCC3)C1)NC(=O)[C@@H]1CCNC1Cc1ccccc1 (stereo partly drawn) [Compound 143]	> 1000 nM
O=C(N[C@@H](CCN1CC[C@@H](CCc2ccc3c(n2)NCCC3)C1)C(=O)O)c1cccnc1 [Compound 19a, (S)-2-(nicotinamido)-4-((R)-3-(2-(5,6,7,8-tetrahydro-1,8-naphthyridin-2-yl)ethyl)pyrrolidin-1-yl)butanoic acid]	50 to 250 nM
CC(C)(C(=O)N[C@@H](CCN1CC(OCCc2ccc3c(n2)NCCC3)C1)C(=O)O)c1ccccc1 [Compound 120]	50 to 250 nM

Structure (SMILES)	IC50
O=C(O)[C@H](CCN1CC[C@@H](OCCc2ccc3c(n2)NCCC3)C1)NC(=O)[C@@H]1CCCN1c1ccccc1 [Compound 133]	250 to 1000 nM
O=C(O)[C@H](CCN1CC[C@@H](CCc2ccc3c(n2)NCCC3)C1)NC(=O)[C@@H]1CCCN1c1ccccc1 [Compound 43]	< 50 nM
O=C(N[C@@H](CCN1CC[C@@H](CCc2ccc3c(n2)NCCC3)C1)C(=O)O)c1c(Cl)cccc1Cl [Compound 6a, (S)-2-(2,6-dichlorobenzamido)-4-((R)-3-(2-(5,6,7,8-tetrahydro-1,8-naphthyridin-2-yl)ethyl)pyrrolidin-1-yl)butanoic acid]	< 50 nM
O=C(N[C@@H](CCN1CC(CCc2ccc3c(n2)NCCC3)C(F)(F)C1)C(=O)O)c1ccccc1 (stereo partly drawn) [Compound 39]	50 to 250 nM
Cc1cc(C)n(-c2cccc(C(=O)NC(CCN3CC[C@@H](CCc4ccc5c(n4)NCCC5)C3)C(=O)O)c2)n1 (stereo partly drawn) [13a and 13c]	< 50 nM
CC(C)(C(=O)N[C@@H](CCN1CC[C@@H](CCc2ccc3c(n2)NCCC3)C1)C(=O)O)c1cccnc1 [Compound 37]	< 50 nM
CCC(CC)C(=O)N[C@@H](CCN1CCC[C@@](F)(CCc2ccc3c(n2)NCCC3)C1)C(=O)O [Compound 94]	50 to 250 nM
O=C(O)[C@H](CCN1CC[C@@H](CCc2ccc3c(n2)NCCC3)C1)NC(=O)[C@@H]1CCCCN1C(=O)C1CCC1 [Compound 74]	< 50 nM
O=C(O)[C@H](CCN1CC(CCc2ccc3c(n2)NCCC3)C1)NC(=O)[C@@H]1CCCN1c1ccccc1 [Compound 129]	250 to 1000 nM
O=C(N[C@@H](CCN1CCC[C@@](F)(CCc2ccc3c(n2)NCCC3)C1)C(=O)O)c1c(Cl)cccc1Cl [Compound 101]	250 to 1000 nM
O=C(N[C@@H](CCN1CC[C@@H](CCc2ccc3c(n2)NCCC3)C1)C(=O)O)c1cccc(C(F)(F)F)c1 [Compound 9a, (S)-4-((R)-3-(2-(5,6,7,8-tetrahydro-1,8-naphthyridin-2-yl)ethyl)pyrrolidin-1-yl)-2-(3-(trifluoromethyl)benzamido)butanoic acid]	< 50 nM
O=C(N[C@H](CCN1CC[C@@H](CCc2ccc3c(n2)NCCC3)C1)C(=O)O)c1cccc(-c2cncs2)c1 [Compound 84]	< 50 nM
O=C(N[C@@H](CCN1CC(OCCc2ccc3c(n2)NCCC3)C1)C(=O)O)c1c(Cl)cccc1Cl [Compound 115]	< 50 nM
Cc1nn(C)cc1-c1nn(C)c2c(C(=O)N[C@@H](CCN3CC[C@@H](CCc4ccc5c(n4)NCCC5)C3)C(=O)O)cccc12 [Compound 98]	250 to 1000 nM
O=C(N[C@@H](CCN1CC(OCCc2ccc3c(n2)NCCC3)C1)C(=O)O)[C@H]1CCN(c2ccccn2)C1 [Compound 132]	50 to 250 nM
O=C(N[C@H](CCN1CC[C@@H](CCc2ccc3c(n2)NCCC3)C1)C(=O)O)c1cccc(-c2cscn2)c1 [Compound 85]	< 50 nM
CC(C)(C(=O)N[C@@H](CCN1CC(CCc2ccc3c(n2)NCCC3)C1)C(=O)O)c1cccnc1 [Compound 144]	> 1000 nM
CC(C)(O)CN1CCC[C@H]1C(=O)N[C@@H](CCN1CC[C@@H](OCCc2ccc3c(n2)NCCC3)C1)C(=O)O [Compound 142]	> 1000 nM
CCC(CC)C(=O)N[C@@H](CCN1CC[C@@H](CCc2ccc3c(n2)NCCC3)C1)C(=O)O [Compound 95]	< 50 nM
O=C(N[C@@H](CCN1CC[C@@H](CCc2ccc3c(n2)NCCC3)C1)C(=O)O)c1cccc(F)c1F [Compound 67]	< 50 nM
O=C(O)[C@H](CCN1CC[C@@H](CCc2ccc3c(n2)NCCC3)C1)NC(=O)[C@@H]1CCCN1CC1CC1 [Compound 91]	50 to 250 nM
Cn1nccc1-c1cccc(C(=O)N[C@@H](CCN2CC[C@@H](CCc3ccc4c(n3)NCCC4)C2)C(=O)O)c1 [Compound 57]	< 50 nM
Cn1nccc1-c1cccc(C(=O)N[C@H](CCN2CC[C@@H](CCc3ccc4c(n3)NCCC4)C2)C(=O)O)c1 [Compound 86]	< 50 nM
CC(C)Cn1cc2c(C(=O)N[C@@H](CCN3CC[C@@H](CCc4ccc5c(n4)NCCC5)C3)C(=O)O)cccc2n1 [Compound 72]	< 50 nM
